Reference: US8729074B2, “Inhibitors of PI3 kinase” (Amgen Inc., priority 2009, dated 2014)

Tests used:
PI3Kα [1] = molecular target: T1, PI3Kα (Homo sapiens (Human), UniProt P42336); test: In vitro PI3K AlphaScreen assay; type: biochemical; details: average if run more than once
Protocol: In Vitro PI3K AlphaScreen® Assay
The PI3K AlphaScreen® assay (PerkinElmer, Waltham, Mass.) measures the activity of a panel of four phosphoinositide 3-kinases: PI3Kα, PI3Kβ, PI3Kγ, and PI3Kδ. Each of these enzymes phosphorylates the 3′-hydroxyl group on phosphatidylinositiol (4,5)-bisphosphate (PIP2) to produce phosphatidylinositol (3,4,5)-trisphosphate (PIP3). This phosphorylation activity is measured using a GST-tagged PIP3 binding protein (Echelon Biosciences, Salt Lake City, Utah), an anti-GST-tagged Acceptor bead, and streptavidin-Donor bead. […] In the absence of this interaction, proximity of the Donor and Acceptor beads is decreased, producing a loss of luminescent signal which is inversely proportional to PI3K activity.
The enzyme reaction buffer is made using sterile water (Baxter, Deerfield, Ill.) and 50 mM Tris HCl pH 7, 14 mM MgCl2, 2 mM sodium cholate, and 100 mM NaCl. 2 mM DTT is added fresh the day of the experiment. The AlphaScreen® reaction buffer is made using sterile water and 10 mM Tris HCl pH 7.5, 150 mM NaCl, 0.10% Tween 20, and 30 mM EDTA. 1 mM DTT is added fresh the day of the experiment.
The source plates for this assay are 384-well Greiner clear polypropylene plates containing test compounds at 5 mM and diluted 1:2 over 22 points. Columns 23 and 24 contain only DMSO as these are designated for positive and negative controls. Source plates are replicated into 384-well Optiplates (PerkinElmer, Waltham, Mass.), 0.5 μL/well, to make assay-ready plates.
The different PI3K isoforms are each diluted in enzyme reaction buffer to 2× working solutions. […] Two different 2× substrate solutions are made in enzyme reaction buffer. In one solution, PI(4,5)P2 (Echelon Biosciences, Salt Lake City, Utah) is diluted to 10 μM and ATP is diluted to 20 μM. This solution is used in the assays testing PI3Kα and PI3Kβ. In a second solution, PI(4,5)P2 is diluted to 10 μM and ATP is diluted to 8 μM. This solution is used in the assays testing PI3Kγ and PI3Kδ.
The AlphaScreen® reaction solutions are made using beads from the anti-GST AlphaScreen® kit (PerkinElmer, Waltham, Mass.). Two solutions are made in Alphascreen reaction buffer to 4× working concentrations. In one solution, biotinylated-IP4 (Echelon Biosciences, Salt Lake City, Utah) is diluted to 40 nM and streptavadin-Donor Beads are diluted to 80 μg/mL. In the second solution, PIP3-binding protein (Echelon Biosciences, Salt Lake City, Utah) is diluted to 40 nM and anti-GST-Acceptor Beads are diluted to 80 μg/mL. 10 μL/well of enzyme reaction buffer is added to Column 24 of the assay ready plates in place of enzyme. This is done for plates in the PI3Kα, β, and δ assays.
Using a 384-well dispensing Multidrop (Titertek, Huntsville, Ala.), 10 μL/well of 2× enzyme (PI3Kα, β, δ) is added to Columns 1-23 of the appropriate assay ready plates (for PI3Kγ 10 μL is added to Columns 1-24). 10 μL/well of the appropriate substrate solution (the solution with 20 μM ATP for PI3Kα and β assays, and the solution with […] for PI3Kγ and δ assays) is then added to Columns 1-24 of the plates. Plates are then incubated at room temperature for 20 minutes.
In the dark, 10 μL/well of the Donor Bead solution is added to Columns 1-24 of the plates to quench the enzyme reaction. The plates are incubated at room temperature for 30 minutes. Still in the dark, 10 μL/well of the Acceptor Bead solution is also added to Columns 1-24 of the plates. The plates are then incubated in the dark for 1.5 hours. The plates are read on an Envision Multilabel Plate Reader (PerkinElmer, Waltham, Mass.) with a 680 nm excitation filter and a 520-620 nm emission filter.
Activity data for the compounds tested in the assay is provided in Table 1 under the column heading PI3Kα AlphaScreen®.

PI3Kα [2] = molecular target: T1, PI3Kα; test: In vitro PI3 kinase enzyme assay (PI3K ATPLoss); type: biochemical; details: average if run more than once
Protocol: Recombinant Expression of PI3K Enzymes
Full length p110 subunits of PI3K α, β and δ, N-terminally labeled with polyHis tag, can be co-expressed with p85 with Baculo virus expression vectors in sf9 insect cells. P110/p85 heterodimers can be purified by sequential Ni-NTA, Q-HP, Superdex-100 chromatography. Purified α, β and δ isozymes can be stored at −20° C. in 20 mM Tris, pH 8, 0.2M NaCl, 50% glycerol, 5 mM DTT, 2 mM Na cholate. […] The γ isozyme can be purified by sequential Ni-NTA, Superdex-200, Q-HP chromatography. The γ isozyme can be stored frozen at −80° C. in NaH2PO4, pH 8, 0.2M NaCl, 1% ethylene glycol, 2 mM β-mercaptoethanol.
In Vitro PI3 Kinase Enzyme Assays (PI3K ATPLoss)
PI3K enzyme assays (alpha, beta, delta and gamma) can be performed in 25 μL with the above final concentrations of components in white polyproplyene plates. Phosphatidyl inositol phosphoacceptor, PtdIns(4,5)P2 (e.g., P4508) can be obtained from Echelon Biosciences, Salt Lake City, Utah. […] Test compounds can be dissolved in DMSO and diluted with three-fold serial dilutions. The compound in DMSO (1 μL) may be added per test well, and the inhibition relative to reactions containing no compound, with and without enzyme can be determined. After assay incubation at RT, the reaction can be stopped and residual ATP can be determined by addition of an equal volume of a commercial ATP bioluminescence kit (Perkin Elmer EasyLite, Perkin Elmer, Waltham, Mass.) according to the manufacturer's instructions, and detected using an Analyst GT luminometer.

[3] = system: phosphorylation of Akt at Serine 473 in U87 MG cells; test: pAkt AlphaScreen (U87 cell); type: cell-based; details: Homo sapiens, U-87 MG, 2 h; pAkt Ser473, U87 MG cells, compound two hours; average if run more than once
Protocol: pAkt AlphaScreen (U87 Cell)
The pAkt AlphaScreen® assay (PerkinElmer, Waltham, Mass.) determines whether there is phosphorylation of Akt at Serine 473 by recruitment of a phosphospecific antibody. This assay was performed using U87 MG cells. The U87 growth media consists of MEM (Gibco, Carlsbad, Calif.) supplemented with 10% FBS (Gibco), 1× Non-Essential Amino Acids (Gibco) and 1× Penicillin/Streptomycin/Glutamine (Gibco). The cells were maintained weekly using 0.05% Trypsin (Gibco) and replated in 150 mm TC—Treated Culture Dishes (Corning, Corning, N.Y.).
The first day of the assay, the adherent cells were trypsinized, media was added to the loose cells and cells were mixed to a homogenous mixture. 0.5 ml of the homogenous mixture was counted on the Beckman Coulter® Vi-CELL™ XR (Fullerton, Calif.). 50 frames of cells were counted and the number of viable cells was determined. The cells were then diluted to 0.25 million cells per ml, and centrifuged at 200 rcf for 5 minutes. The media was removed and the cells were reconstituted in fresh media for plating. The cells were plated at 20 μl per well on the PerkinElmer® Flexprop PLUS in Low Volume 384 Well White Tissue Culture Plates (Corning) with a final cell density of 5K cells per well. The plates were incubated overnight at 37° Celsius, 5% CO2.
On the second day, the compound plates were prepared, the cells were treated with compound and the pAkt reaction mix was added to the cell lysate. 384 well compound plates were prepared containing 1 μl of compound per well starting at 5 mM and diluted 1:2 across the row, resulting in a 22 well serial dilution. 39 μl of growth media was added to the compound plate in rows 1-22 using the PerkinElmer® Flexprop PLUS resulting in a DMSO concentration of 2.5%. The cell plates and diluted compound plates were put onto the VELOCITY11™ VPREP™ 384 ST where the compound plate was mixed and 5 μl of serially diluted compound or controls was added to the cell plate. The final concentration of the compounds was 25 μM serially diluted to 11.9 pM in 0.5% DMSO. The cell plates were then incubated with compound for two hours at 37° Celsius, 5% CO2. After two hours, the media in the cell plates was aspirated using the BioTek® ELx405HT plate washer (Winooski, Vt.) removing the majority of media and compound without disturbing the adherent U87 cells. The following assay reagents are components of the SureFire® Akt (Ser 473) Phosphorylation 50K Point Kit (TGR BioSciences, Adelaide, Australia) and an IgG Detection Kit (PerkinElmer, Waltham, Mass.). 5 μl of 1× Lysis Buffer was added to each well using the PerkinElmer® Flexprop PLUS. The plates were then incubated at room temperature on a shaker for ten minutes. The AlphaScreen® reaction was prepared under low light conditions (subdued or green light) including p-Akt (Ser 473) Reaction Buffer, Dilution Buffer, Activation Buffer, Acceptor Beads and Donor Beads at a ratio of 40:20:10:1:1 respectively. The AlphaScreen® reaction was added to the cell lysate at 6 μl per well using the PerkinElmer® Flexprop PLUS. The plates were placed in a humid environment to reduce edge effects and incubated overnight at room temperature with restricted air flow in the dark.
On the final day of the experiment, the plates were read on the PerkinElmer® EnVision™ 2103 Multilable Reader using the standard AlphaScreen® readout. The POC is calculated and the data is analyzed to report the IC50 IP for pAkt at Serine 473.
Activity data for the compounds tested in the PI3K cell based Akt assay is provided in Table 1 under the column heading U87

mTOR = mTOR (Homo sapiens (Human), UniProt P42345); test: In vitro mTOR Lanthascreen assay; type: biochemical; details: average if run more than once
Text: The Invitrogen (Carlsbad, Calif.) mammalian target of rapamycin (mTOR) Lanthascreen assay can be used to quantitate mTOR kinase activity in an in vitro setting. Active mTOR phosphorylates eukaryotic translation initiation factor 4E binding protein 1 (4E-BP1) on residue threonine 46. This phosphorylation event can be detected with a phospho-specific terbium (Tb) labeled Ab, in turn bringing the Tb label in close proximity to the GFP tagged 4E-BP 1 and allowing for time-resolved fluorescence resonance energy transfer (TR-FRET), which correlates 4E-BP1 phosphorylation levels with mTOR kinase activity.
Enzyme reaction buffer can be prepared in deionized water containing 50 mM HEPES (pH 7.5), 0.01% Polysorbate 20, 1 mM EGTA, and 10 mM MnCl2.
Dilutions of the compound to be tested can be prepared in 96-well polypropylene plates (Fisher Scientific, Waltham, Mass.). One row represents a 10-point dose of compound diluted 1:3 in enzyme reaction buffer and 20% dimethyl sulfoxide (DMSO). The top concentration for all compounds is 36 μM. Wells 6 and 12 can serve as the no compound (DMSO only) and high compound controls.
An mTOR substrate solution can prepared in enzyme reaction buffer containing 1600 nM green fluorescent protein tagged eukaryotic translation initiation factor 4E binding protein 1 (GFP-4E-BP1) (Invitrogen, Carlsbad, Calif.) and 28 uM adenosine triphosphate (ATP) (Calbiochem, Gibbstown, N.J.).
mTOR enzyme (Invitrogen, Carlsbad, Calif.) can be diluted in enzyme reaction buffer to a working concentration of 100 ng/mL.
The enzyme assay can be run in 384 well low volume assay plates (Corning, Corning, N.Y.). 2.5 uL of substrate solution containing GFP-4E-BP1 and ATP can be added to appropriate wells in the assay plate followed by 2.5 μL of compound dilutions. 5 μL of appropriately diluted mTOR enzyme can be added and the reaction allowed to proceed for 1 hour at room temperature. Final reagent concentrations in the enzyme assay are 50 ng/mL mTOR, 400 nM GFP-4E-BP1, and 7 μM ATP.
The enzyme assay can be terminated upon the addition of 10 μL of 20 mM EDTA and 4 nM Tb-labeled anti-phospho-4E-BP1 [T46] antibody (Invitrogen, Carlsbad, Calif.). The assay plate can then be incubated at room temperature for 1 hour and results read on a Tecan Safire II plate reader (Tecan, Männedorf, Switzerland).

T1 sequence (P42336 whole entry): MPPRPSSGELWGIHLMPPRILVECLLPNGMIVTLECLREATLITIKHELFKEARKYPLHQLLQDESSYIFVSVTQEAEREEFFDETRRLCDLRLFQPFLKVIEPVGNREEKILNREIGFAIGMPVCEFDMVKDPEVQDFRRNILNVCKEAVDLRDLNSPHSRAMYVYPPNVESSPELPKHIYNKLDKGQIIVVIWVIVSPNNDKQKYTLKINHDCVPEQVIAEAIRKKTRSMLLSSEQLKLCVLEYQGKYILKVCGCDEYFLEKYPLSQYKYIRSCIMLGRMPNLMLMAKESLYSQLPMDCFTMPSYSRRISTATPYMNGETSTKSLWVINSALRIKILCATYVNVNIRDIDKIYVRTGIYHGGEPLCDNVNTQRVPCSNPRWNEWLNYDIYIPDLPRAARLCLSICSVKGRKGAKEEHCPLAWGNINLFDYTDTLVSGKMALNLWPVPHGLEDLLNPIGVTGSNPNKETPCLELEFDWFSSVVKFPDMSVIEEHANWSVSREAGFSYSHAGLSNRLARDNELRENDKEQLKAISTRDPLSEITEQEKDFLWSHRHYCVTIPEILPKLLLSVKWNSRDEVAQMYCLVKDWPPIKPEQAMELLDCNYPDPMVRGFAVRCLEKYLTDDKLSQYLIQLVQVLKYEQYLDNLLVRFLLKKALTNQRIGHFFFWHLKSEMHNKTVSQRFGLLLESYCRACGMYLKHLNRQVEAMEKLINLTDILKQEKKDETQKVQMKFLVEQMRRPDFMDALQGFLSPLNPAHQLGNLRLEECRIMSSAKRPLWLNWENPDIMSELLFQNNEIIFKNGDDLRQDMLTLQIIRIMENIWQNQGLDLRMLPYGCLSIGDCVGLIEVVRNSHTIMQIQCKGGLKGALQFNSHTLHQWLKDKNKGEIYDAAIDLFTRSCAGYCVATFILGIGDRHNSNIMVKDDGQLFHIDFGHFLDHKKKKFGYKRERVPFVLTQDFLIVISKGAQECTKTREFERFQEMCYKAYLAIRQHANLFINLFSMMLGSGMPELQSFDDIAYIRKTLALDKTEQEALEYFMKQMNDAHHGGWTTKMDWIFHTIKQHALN
T1 sequence (P27986 whole entry partner): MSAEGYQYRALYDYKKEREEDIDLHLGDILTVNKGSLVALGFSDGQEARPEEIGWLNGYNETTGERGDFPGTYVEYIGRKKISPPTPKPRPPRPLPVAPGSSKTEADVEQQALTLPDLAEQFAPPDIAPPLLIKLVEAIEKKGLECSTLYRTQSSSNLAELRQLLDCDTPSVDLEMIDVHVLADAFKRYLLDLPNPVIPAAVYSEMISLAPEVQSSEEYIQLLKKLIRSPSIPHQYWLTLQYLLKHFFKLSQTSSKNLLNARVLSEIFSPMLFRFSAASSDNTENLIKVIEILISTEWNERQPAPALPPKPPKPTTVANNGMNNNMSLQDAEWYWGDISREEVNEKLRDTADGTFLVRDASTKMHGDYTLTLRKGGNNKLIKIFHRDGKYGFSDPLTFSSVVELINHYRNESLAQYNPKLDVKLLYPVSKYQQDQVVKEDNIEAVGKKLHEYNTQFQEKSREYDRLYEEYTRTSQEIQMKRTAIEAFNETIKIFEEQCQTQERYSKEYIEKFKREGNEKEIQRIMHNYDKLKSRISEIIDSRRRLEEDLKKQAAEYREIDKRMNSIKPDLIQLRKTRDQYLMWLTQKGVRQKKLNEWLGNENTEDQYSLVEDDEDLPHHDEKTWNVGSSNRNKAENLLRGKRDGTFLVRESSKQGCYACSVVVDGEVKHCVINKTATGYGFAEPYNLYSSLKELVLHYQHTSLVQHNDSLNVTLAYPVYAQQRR
mTOR, sequence (P42345 1360-2549): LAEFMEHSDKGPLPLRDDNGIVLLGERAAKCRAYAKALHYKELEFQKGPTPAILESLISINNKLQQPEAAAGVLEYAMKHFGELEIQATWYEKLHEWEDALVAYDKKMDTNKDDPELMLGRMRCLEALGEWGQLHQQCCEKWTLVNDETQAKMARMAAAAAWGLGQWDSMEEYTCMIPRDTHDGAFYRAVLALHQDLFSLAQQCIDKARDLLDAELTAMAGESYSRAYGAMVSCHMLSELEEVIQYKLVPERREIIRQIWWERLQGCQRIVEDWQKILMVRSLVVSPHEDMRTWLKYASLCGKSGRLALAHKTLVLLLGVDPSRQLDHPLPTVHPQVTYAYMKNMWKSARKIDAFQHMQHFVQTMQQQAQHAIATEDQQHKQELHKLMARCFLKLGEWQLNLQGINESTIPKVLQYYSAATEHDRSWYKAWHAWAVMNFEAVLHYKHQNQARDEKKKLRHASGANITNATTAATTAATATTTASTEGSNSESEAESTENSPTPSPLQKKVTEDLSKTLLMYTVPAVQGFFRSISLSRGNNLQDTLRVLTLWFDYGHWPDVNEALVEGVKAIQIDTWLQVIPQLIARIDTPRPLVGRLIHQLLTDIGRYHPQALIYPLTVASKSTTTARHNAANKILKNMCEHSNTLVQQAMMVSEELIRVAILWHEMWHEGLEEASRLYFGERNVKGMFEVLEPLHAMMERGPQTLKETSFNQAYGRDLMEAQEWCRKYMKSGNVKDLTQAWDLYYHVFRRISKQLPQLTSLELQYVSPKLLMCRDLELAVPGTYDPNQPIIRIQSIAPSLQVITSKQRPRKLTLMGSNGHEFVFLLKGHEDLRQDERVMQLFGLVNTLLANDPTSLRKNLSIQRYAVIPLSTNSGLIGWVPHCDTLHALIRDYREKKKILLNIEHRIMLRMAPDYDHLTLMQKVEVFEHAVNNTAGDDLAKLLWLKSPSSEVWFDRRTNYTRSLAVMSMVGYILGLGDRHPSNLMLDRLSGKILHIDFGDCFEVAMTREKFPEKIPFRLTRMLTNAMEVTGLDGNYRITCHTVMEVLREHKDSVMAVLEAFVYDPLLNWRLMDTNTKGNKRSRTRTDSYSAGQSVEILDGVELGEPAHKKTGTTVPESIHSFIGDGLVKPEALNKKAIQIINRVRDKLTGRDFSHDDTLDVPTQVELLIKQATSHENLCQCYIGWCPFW

| SMILES | Ki (PI3Kα [1]) | IC50 (PI3Kα [2]) | IC50 [3] | IC50 (mTOR) |
| --- | --- | --- | --- | --- |
| O=S(=O)(Nc1cncc(-c2cnc3ccccn23)c1)c1ccc(F)cc1 [Example 2, 4-Fluoro-N-(5-imidazo[1,2-a]pyridin-3-yl-3-pyridinyl)benzenesulfonamide] | 1.29 µM | 0.931 µM |  |  |
| COc1cc(-c2cnc3ccc(N4C(=O)OC[C@H]4Cc4ccccc4)cn23)cnc1OC [Example 14, (4R)-4-Benzyl-3-(3-(5,6-dimethoxy-3-pyridinyl)imidazo[1,2-a]pyridin-6-yl)-1,3-oxazolidin-2-one] | 0.268 µM |  | 6.97 µM |  |
| COc1cc(-c2cnc3ccc(N4C(=O)OC[C@@H]4Cc4ccccc4)cn23)cnc1OC [Example 15, (4S)-4-Benzyl-3-(3-(5,6-dimethoxy-3-pyridinyl)imidazo[1,2-a]pyridin-6-yl)-1,3-oxazolidin-2-one] | 0.286 µM |  | 6.62 µM |  |
| O=c1n(Cc2ccccc2)ccc2ncc(-c3cnc(Cl)c(NS(=O)(=O)c4ccc(F)cc4)c3)n12 [Example 17, N-(5-(6-Benzyl-5-oxo-5,6-dihydroimidazo[1,2-c]pyrimidin-3-yl)-2-chloropyridin-3-yl)-4-fluorobenzenesulfonamide] | 0.465 µM |  |  | 0.18 µM |
| O=S(=O)(Nc1cc(-c2cnc3ncccn23)cnc1Cl)c1ccc(F)cc1 [Example 24, N-(2-Chloro-5-(imidazo[1,2-a]pyrimidin-3-yl)pyridin-3-yl)-4-fluorobenzenesulfonamide] | 0.378 µM | 0.781 µM |  | > 50 µM |
